Results as given in US10562857B2 (AFASCI, Inc., priority 2015, dated 2020).
pIC50: −log10 of the molar value.

Target: T1, Cav3.2 channel (Homo sapiens, UniProt O95180)
T1 construct: expressed in transfected cells; host or cells: HEK-293, tetracycline inducible expression system (Invitrogen)
Assay: Whole-cell patch clamp of T-type Cav3.2 channel expressed in HEK293 cells
Assay type: cell-based
Details: for pIC50: Table 1, tested at at least 4 concentrations, read-out: IC50; for inhibition at 1 µM: HEK293, Table 1 primary screening
Description: Cav3.1, Cav3.2 or Cav3.3 channels were expressed in human embryonic kidney (HEK)-293 cells using a tetracycline inducible expression system (Invitrogen). Cells were maintained in 25 cm^2 tissue culture flasks at 37° C., 5% CO2, and 100% relative humidity in D-MEM/F12 (Dulbecco's Modified Eagle Medium/Nutrient Mixture F-12; Gibco) supplemented with fetal bovine serum (FBS, 10% v/v), sodium pyruvate (0.5 mM, Gibco), penicillin-streptomycin (100 U/mL, 100 μg/mL) and Geneticin® Selective antibiotic (G418; 0.5 mg/mL). Cells were detached from the flask base using a non-enzymatic cell dissociation solution (Cellstripper, Corning), removed and re-seeded on to poly-D-lysine coated glass coverslips in 35 mm dishes. Cells in dishes were further supplemented with G418 at a final concentration of 1 mg/mL and after 24 hours, expression of Cav3.2 was induced with 1 μg/mL tetracycline. The medium for the HEK-293 cells was composed of D-MEM/F-12 (Dulbecco's Modified Eagle Medium/Nutrient Mixture F-12; Gibco, #11330-032) and 15 mM HEPES buffer, with L-glutamine and pyridoxine hydrochloride. It was supplemented with FBS (Fetal Bovine Serum), P/S (Penicillin/Streptomycin) (Gibco, #15140-122), and sodium pyruvate 100 mM (Gibco, #11360-070). At least 24 hours before the assay, expression of the alpha-2-delta-1 and beta2a subunits of the calcium channel were induced with 1 ug/mL tetracycline.
Whole-cell voltage clamp recordings were performed on rat or mouse DRG neurons within 2 days after acutely dissociation or cultured HEK293 cells expressing T-type channels (encoded by Cav3.1, Cav3.2 or Cav3.3 channels). All experiments were performed at room temperature (around 21° C.). Whole-cell currents were recorded using a MultiClamp 700B amplifier and analyzed offline with pCLAMP10.4 software (Molecular Devices, LLC, Sunnyvale Calif., USA). To record calcium currents in DRG and HEK293 cells, the external solution was composed (in mM) of 115 choline-Cl, 30 TEA-Cl, 2 CaCl2, 10 glucose and 10 HEPES (pH 7.3-7.4 adjusted with TEA-OH; osmolality verified as 295 mOsm/kg). The internal solution was composed (in mM) of 125 CsCl, 10 HEPES (acid), 10 EGTA (ethylene glycol tetraacetic acid), 1 CaCl2, 1 MgCl2, 4 MgATP and 0.3 MgGTP (pH 7.3-7.4 adjusted with CsOH; osmolality verified as 295 mOsm/kg). Since the sodium ions were absent in the external solution, tetrodoctoxin was not needed. Calcium currents were recorded at a holding potential of −100 mV and then depolarized to −30 mV for 100 ms to activate either Cav3.1, Cav3.2, or Cav3.3 expressed in HEK cells. An interpulse interval of 10 seconds allowed the channel recovery from inactivation, and achieved stable current recordings. To record sodium (Na^+) currents in DRG neurons, the external solution used the modified Krebs solution specified above. The internal solution was composed (in mM) of 120 CsF, 10 HEPES, 11 EGTA, 1 CaCl2, 1 MgCl2, 10 TEA-Cl, 4 MgATP and 0.3 MgGTP (pH 7.3-7.4 adjusted with CsOH). […] To record potassium currents in DRG neurons, the external solution used the modified Kreb's solution specified above. The internal solution was composed (in mM) of 65 KCl, 80 KF, 5 KOH, 10 EGTA, 2 MgATP (pH 7.3-7.4 adjusted with KOH). Recording electrodes were fabricated using a P-87 puller (Sutter Instrument Co., Novato, Calif., USA). The tip of resistance was 3-4 MQ in bath and the series resistance was less than 10 MΩ after whole cell configuration. All reagents were purchased from Sigma unless specified otherwise. Test compounds were usually applied via a rapid solution exchange system with 8 fine polyplastic tubings (100 μm, OD) glued in a holder in parallel and located closely to the recorded cells. […]

T1 sequence (O95180 whole entry): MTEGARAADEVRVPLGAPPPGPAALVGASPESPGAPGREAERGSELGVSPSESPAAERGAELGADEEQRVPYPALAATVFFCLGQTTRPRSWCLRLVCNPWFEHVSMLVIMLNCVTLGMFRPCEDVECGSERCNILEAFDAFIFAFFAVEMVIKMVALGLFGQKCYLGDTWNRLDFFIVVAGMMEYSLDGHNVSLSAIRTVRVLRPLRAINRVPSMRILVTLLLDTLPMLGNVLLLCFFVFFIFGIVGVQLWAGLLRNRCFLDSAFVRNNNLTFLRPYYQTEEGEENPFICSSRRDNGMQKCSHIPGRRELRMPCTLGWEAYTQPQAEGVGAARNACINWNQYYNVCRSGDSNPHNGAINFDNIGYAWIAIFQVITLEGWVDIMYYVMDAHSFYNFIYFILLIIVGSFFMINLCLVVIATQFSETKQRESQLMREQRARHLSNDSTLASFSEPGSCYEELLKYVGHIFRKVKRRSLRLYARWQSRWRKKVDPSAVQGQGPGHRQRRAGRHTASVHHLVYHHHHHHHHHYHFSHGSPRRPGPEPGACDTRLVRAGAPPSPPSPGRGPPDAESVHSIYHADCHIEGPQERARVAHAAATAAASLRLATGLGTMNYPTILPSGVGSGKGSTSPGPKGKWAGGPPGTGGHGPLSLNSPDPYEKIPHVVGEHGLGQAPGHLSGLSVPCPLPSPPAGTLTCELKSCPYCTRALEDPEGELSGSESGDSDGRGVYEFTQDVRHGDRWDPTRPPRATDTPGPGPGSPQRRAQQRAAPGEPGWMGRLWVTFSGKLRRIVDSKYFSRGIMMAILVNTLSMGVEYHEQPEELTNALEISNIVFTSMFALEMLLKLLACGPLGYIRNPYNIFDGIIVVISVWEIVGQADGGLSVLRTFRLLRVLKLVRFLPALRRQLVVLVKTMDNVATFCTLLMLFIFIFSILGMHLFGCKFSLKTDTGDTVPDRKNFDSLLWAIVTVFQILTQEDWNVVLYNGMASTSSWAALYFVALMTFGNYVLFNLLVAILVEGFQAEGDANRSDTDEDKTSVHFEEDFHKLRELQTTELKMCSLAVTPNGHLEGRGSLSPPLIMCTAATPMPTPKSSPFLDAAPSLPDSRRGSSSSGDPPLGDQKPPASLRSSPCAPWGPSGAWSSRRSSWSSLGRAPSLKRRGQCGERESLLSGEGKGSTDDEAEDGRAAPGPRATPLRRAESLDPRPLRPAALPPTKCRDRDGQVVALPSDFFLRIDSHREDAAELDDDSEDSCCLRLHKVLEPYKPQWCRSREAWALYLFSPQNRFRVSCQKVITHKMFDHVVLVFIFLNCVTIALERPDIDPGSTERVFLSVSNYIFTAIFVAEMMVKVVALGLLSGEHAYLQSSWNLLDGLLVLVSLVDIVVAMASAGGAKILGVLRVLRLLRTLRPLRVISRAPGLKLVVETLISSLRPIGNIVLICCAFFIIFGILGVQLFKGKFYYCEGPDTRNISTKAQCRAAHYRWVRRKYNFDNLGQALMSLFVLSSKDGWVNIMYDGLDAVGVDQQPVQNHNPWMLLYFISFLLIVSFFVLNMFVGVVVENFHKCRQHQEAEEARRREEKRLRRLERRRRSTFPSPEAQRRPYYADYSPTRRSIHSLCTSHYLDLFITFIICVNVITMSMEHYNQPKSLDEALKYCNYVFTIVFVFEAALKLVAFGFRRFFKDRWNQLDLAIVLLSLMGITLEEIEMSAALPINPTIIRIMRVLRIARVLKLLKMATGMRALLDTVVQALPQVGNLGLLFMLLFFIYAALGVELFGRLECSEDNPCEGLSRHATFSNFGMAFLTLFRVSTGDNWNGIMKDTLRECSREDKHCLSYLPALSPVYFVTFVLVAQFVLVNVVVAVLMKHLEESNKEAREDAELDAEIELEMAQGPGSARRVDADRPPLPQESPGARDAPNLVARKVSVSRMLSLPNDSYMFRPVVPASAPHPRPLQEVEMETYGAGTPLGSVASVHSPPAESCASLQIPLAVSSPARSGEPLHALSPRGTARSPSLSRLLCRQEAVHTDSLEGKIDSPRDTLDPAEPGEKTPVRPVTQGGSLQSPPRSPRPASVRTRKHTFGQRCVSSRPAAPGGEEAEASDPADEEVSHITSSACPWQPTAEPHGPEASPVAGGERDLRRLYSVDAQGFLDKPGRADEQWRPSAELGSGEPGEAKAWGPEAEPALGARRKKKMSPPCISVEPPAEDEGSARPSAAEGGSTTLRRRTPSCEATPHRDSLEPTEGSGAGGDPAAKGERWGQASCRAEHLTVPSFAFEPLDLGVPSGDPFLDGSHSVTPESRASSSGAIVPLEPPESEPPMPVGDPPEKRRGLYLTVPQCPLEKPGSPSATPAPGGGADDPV

SMILES	pIC50	inhibition at 1 µM
O=C(NC1CC12CCN(CCc1ccccc1)CC2)c1cc(Cl)cc(Cl)c1 (stereo not shown) [Example 13, 3,5-Dichloro-N-(6-phenethyl-6-azaspiro[2.5]octan-1-yl)benzamide]	7.52	
O=C(NC1CC12CCN(Cc1ccccc1)CC2)c1cc(Cl)cc(Cl)c1 (stereo not shown) [Example 15, N-(6-Benzyl-6-azaspiro[2.5]octan-1-yl)-3,5-dichlorobenzamide]	7.10	
CC(C)(C)NC(=O)CN1CCC2(CC1)CC2NC(=O)c1cc(F)cc(C(F)(F)F)c1 (stereo not shown) [Example 18, N-{6-[(tert-Butylcarbamoyl)methyl]-6-azaspiro[2.5]octan-1-yl}-3-fluoro-5-(trifluoromethyl)benzamide]	6.60	
CC(C)(C)CCN1CCC2(CC1)CC2NC(=O)c1ccccc1Cl (stereo not shown) [Example 20, 2-Chloro-N-(6-(3,3-dimethylbutyl)-6-azaspiro[2.5]octan-1-yl)benzamide]		37%
CC(C)(C)CCN1CCC2(CC1)CC2NC(=O)c1cccc(Cl)c1 (stereo not shown) [Example 21, 3-Chloro-N-(6-(3,3-dimethylbutyl)-6-azaspiro[2.5]octan-1-yl)benzamide]		67%
CC(C)(C)CCN1CCC2(CC1)CC2NC(=O)c1ccc(Cl)cc1 (stereo not shown) [Example 22, 4-Chloro-N-(6-(3,3-dimethylbutyl)-6-azaspiro[2.5]octan-1-yl)benzamide]		50%
CC(C)(C)CCN1CCC2(CC1)CC2NC(=O)c1ccc(Cl)cc1Cl (stereo not shown) [Example 23, 2,4-Dichloro-N-(6-(3,3-dimethylbutyl)-6-azaspiro[2.5]octan-1-yl)benzamide]		69%
CC(C)(C)CCN1CCC2(CC1)CC2NC(=O)c1cc(F)cc(C(F)(F)F)c1 (stereo not shown) [Example 24, N-(6-(3,3-Dimethylbutyl)-6-azaspiro[2.5]octan-1-yl)-3-fluoro-5-(trifluoromethyl)benzamide]	7.70	
CC(C)(C)CCN1CCC2(CC1)CC2NC(=O)c1cc(Br)cc(Br)c1 (stereo not shown) [Example 25, 3,5-Dibromo-N-(6-(3,3-dimethylbutyl)-6-azaspiro[2.5]octan-1-yl)benzamide]	7.22	
CC(C)(C)CCN1CCC2(CC1)CC2NC(=O)c1cncc(C(F)(F)F)c1 (stereo not shown) [Example 26, N-(6-(3,3-dimethylbutyl)-6-azaspiro[2.5]octan-1-yl)-5-(trifluoromethyl)nicotinamide]		64%
CC(C)(C)CCN1CCC2(CC1)CC2NC(=O)c1ccc(Cl)s1 (stereo not shown) [Example 27, 5-Chloro-N-(6-(3,3-dimethylbutyl)-6-azaspiro[2.5]octan-1-yl)thiophene-2-carboxamide]	6.26	
CC(C)(C)CCN1CCC2(CC1)CC2NC(=O)c1cccc(C(F)(F)F)c1 (stereo not shown) [Example 29, N-(6-(3,3-Dimethylbutyl)-6-azaspiro[2.5]octan-1-yl)-3-(trifluoromethyl)benzamide]		69%
CC(C)(C)CCN1CCC2(CC1)CC2NC(=O)C12CC3CC(CC(C3)C1)C2 (stereo not shown) [Example 30, N-[6-(3,3-Dimethylbutyl)-6-azaspiro[2.5]octan-1-yl]adamantane-1-carboxamide]	7.05	
CC(C)(C)CCN1CCC2(CC1)CC2NC(=O)Cc1cc(C(F)(F)F)cc(C(F)(F)F)c1 (stereo not shown) [Example 31, 2-(3,5-Bis(trifluoromethyl)phenyl)-N-(6-(3,3-dimethylbutyl)-6-azaspiro[2.5]octan-1-yl)acetamide]	7.10	
Cc1cc(C)cc(C(=O)NC2CC23CCN(CCC(C)(C)C)CC3)c1 (stereo not shown) [Example 32, N-(6-(3,3-Dimethylbutyl)-6-azaspiro[2.5]octan-1-yl)-3,5-dimethylbenzamide]	6.54	
COc1cc(OC)cc(C(=O)NC2CC23CCN(CCC(C)(C)C)CC3)c1 (stereo not shown) [Example 33, N-(6-(3,3-Dimethylbutyl)-6-azaspiro[2.5]octan-1-yl)-3,5-dimethoxybenzamide]		63%

SMILES	pIC50	inhibition at 1 µM
CC(C)(C)CCN1CCC2(CC1)CC2NC(=O)c1cccc(C#N)c1 (stereo not shown) [Example 34, 3-Cyano-N-(6-(3,3-dimethylbutyl)-6-azaspiro[2.5]octan-1-yl)benzamide]	5.85	
CC(C)NC(=O)CN1CCC2(CC1)CC2NC(=O)c1cc(Cl)cc(Cl)c1 (stereo not shown) [Example 37, 3,5-Dichloro-N-(6-(2-(isopropylamino)-2-oxoethyl)-6-azaspiro[2.5]octan-1-yl)benzamide]	7.30	
O=C(NC1CC12CCN(CCc1ccc(F)cc1)CC2)c1cc(Cl)cc(Cl)c1 (stereo not shown) [Example 40, 3,5-Dichloro-N-(6-(4-fluorophenethyl)-6-azaspiro[2.5]octan-1-yl)benzamide]	6.80	
O=C(NC1CC12CCN(CCc1ccc(Cl)cc1)CC2)c1cc(Cl)cc(Cl)c1 (stereo not shown) [Example 41, 3,5-Dichloro-N-(6-(4-chlorophenethyl)-6-azaspiro[2.5]octan-1-yl)benzamide]	6.80	
O=C(NC1CC12CCN(CCc1ccc(C(F)(F)F)cc1)CC2)c1cc(Cl)cc(Cl)c1 (stereo not shown) [Example 43, 3,5-Dichloro-N-(6-(4-(trifluoromethyl)phenethyl)-6-azaspiro[2.5]octan-1-yl)benzamide]	6.92	
O=C(NC1CC12CCN(CCCc1ccccc1)CC2)c1cc(Cl)cc(Cl)c1 (stereo not shown) [Example 45, 3,5-Dichloro-N-(6-(3-phenylpropyl)-6-azaspiro[2.5]octan-1-yl)benzamide]	7.40	
O=C(NC1CC12CCN(CC1CCOCC1)CC2)c1cc(Cl)cc(Cl)c1 (stereo not shown) [Example 46, 3,5-Dichloro-N-(6-((tetrahydro-2H-pyran-4-yl)methyl)-6-azaspiro[2.5]octan-1-yl)benzamide]	6.82	
O=C(NC1CC12CCN(CCC1CCOCC1)CC2)c1cc(Cl)cc(Cl)c1 (stereo not shown) [Example 47, 3,5-Dichloro-N-(6-(2-(tetrahydro-2H-pyran-4-yl)ethyl)-6-azaspiro[2.5]octan-1-yl)benzamide]	6.80	
O=C(NC1CC12CCN(CCCC1CCOCC1)CC2)c1cc(Cl)cc(Cl)c1 (stereo not shown) [Example 48, 3,5-Dichloro-N-(6-(3-(tetrahydro-2H-pyran-4-yl)propyl)-6-azaspiro[2.5]octan-1-yl)benzamide]	6.59	
CC(C)(C)C(=O)CN1CCC2(CC1)CC2NC(=O)c1cc(Cl)cc(Cl)c1 (stereo not shown) [Example 49, 3,5-Dichloro-N-(6-(3,3-dimethyl-2-oxobutyl)-6-azaspiro[2.5]octan-1-yl)benzamide]	6.80	
O=C(CN1CCC2(CC1)CC2NC(=O)c1cc(Cl)cc(Cl)c1)c1ccc(C(F)(F)F)cc1 (stereo not shown) [Example 50, 3,5-Dichloro-N-(6-(2-oxo-2-(4-(trifluoromethyl)phenyl)ethyl)-6-azaspiro[2.5]octan-1-yl)benzamide]	7.10	
CC(C)(C)CCN1CCC2(CC1)CC2NS(=O)(=O)c1cc(Cl)cc(Cl)c1 (stereo not shown) [Example 51, 3,5-Dichloro-N-(6-(3,3-dimethylbutyl)-6-azaspiro[2.5]octan-1-yl)benzenesulfonamide]		47%
O=S(=O)(NC1CC12CCN(CCc1ccccc1)CC2)c1cc(Cl)cc(Cl)c1 (stereo not shown) [Example 52, 3,5-Dichloro-N-(6-phenethyl-6-azaspiro[2.5]octan-1-yl)benzenesulfonamide]		29%
CC(C)(C)NC(=O)CN1CCC2(CC1)CC2NS(=O)(=O)c1cc(Cl)cc(Cl)c1 (stereo not shown) [Example 53, N-(tert-Butyl)-2-(1-((3,5-dichlorophenyl)sulfonamido)-6-azaspiro[2.5]octan-6-yl)acetamide]		25%
CN(C(=O)c1cc(Cl)cc(Cl)c1)C1CC12CCN(CCC(C)(C)C)CC2 (stereo not shown) [Example 54, 3,5-Dichloro-N-(6-(3,3-dimethylbutyl)-6-azaspiro[2.5]octan-1-yl)-N-methylbenzamide]	6.64	
